Source: patent US8946290B2, “Combination of selected opioids with muscarine antagonists for treating urinary incontinence” (Gruenenthal GmbH, priority 2001, dated 2015)

Test system: bladder function
Experiment: Cystometry on anaesthetized naive rats
Type: in vivo
Details: anaesthetized naive female rats, rate of contractions (micturition events/min)
Procedure: The cystometric investigation on naive female rats was carried out by the method of Kimura et al. (Kimura et al., 1996, Int. J. Urol. 3:218-227). The abdomen of anaesthetized, ventilated rats is opened up and the ureter is ligated. The urine is drained from the kidneys. A catheter is inserted into the bladder and fixed. […] After stable starting values are reached, the test substance is administered intravenously. An influence on bladder function manifests itself via suppression of the spontaneous contractions.
In the present example, compound A ((+)-(2R,3R)-1-dimethylamino-3-(3-methoxy-phenyl)-2-methyl-pentan-3-ol; hydrochloride) in the dosage of 0.1 mg/kg intravenous was combined with compound B (oxybutynin) in the dosage of 0.03 mg/kg intravenous and the action of this combination was compared with that of the individual substances.

## CCN(CC)CC#CCOC(=O)C(O)(c1ccccc1)C1CCCCC1 (centres unmarked) [Compound B, oxybutynin]
0.03 mg/kg i.v.
  Inhibition of the rate of contractions compared with the pretest: 10.7% MPE

## CC[C@](O)(c1cccc(OC)c1)[C@H](C)CN(C)C.Cl [Compound A, (+)-(2R,3R)-1-dimethylamino-3-(3-methoxy-phenyl)-2-methyl-pentan-3-ol; hydrochloride]
0.1 mg/kg i.v.
  Inhibition of the rate of contractions compared with the pretest: 21.7% MPE
